Data published in US20060211751A1, “Zolmitriptan crystal forms” (priority 2004, published 2006).

Assays:
Type in all cases: physicochemical
[1] = Transformation by slurry in other solvents (n-hexane, toluene, water) and drying, form determined by XRD
Excerpt: Similarly to example 6 Zolmitriptan samples were slurried from other solvents or solvent systems after dissolution and precipitation from a specific solvent.

[2] = Transformation of zolmitriptan crystal forms by heating in a conventional oven, form determined by XRD; settings: for Crystal form after heating: about 1.5 to 2 hours, conventional oven, XRD
Protocol: Zolmitriptan (0.5 g) crystalline forms were heated in a conventional oven for a period of about 1.5 to 2 hours at different temperatures. The crystal form of the samples was determined by XRD before and after heating.

[3] = Transformation by pressing (crystal form before and after pressing); settings: for Crystal Form after pressing: 100 mg pressed with approximately 1300 psi during 2 minutes

Row | SMILES | XRD sample (form after treatment) ([1]; Toluene, dried 63 °C under reduced pressure) | XRD sample (form after treatment) ([1]; Water, dried 63 °C under reduced pressure) | XRD sample (form after treatment) ([1]; immersed in 10 v/w Toluene, filtered, sucked ½ hour on Buchner) | XRD sample (form after treatment) ([1]; immersed in 10 v/w Water, filtered, sucked ½ hour on Buchner) | XRD sample (form after treatment) ([1]; immersed in 10 v/w n-Hexane, filtered, sucked ½ hour on Buchner) | XRD sample (form after treatment) ([1]; n-Hexane, dried 63 °C under reduced pressure) | Crystal form after heating ([2]; heating temp. 60 °C) | Crystal Form after pressing [3] | transformation to other crystal form on pressing [3] | stability upon heating (conversion to Form A) ([2]; heated at about 60 °C to about 110 °C for about 2 hours) | Crystal form after heating ([2]; heating temp. 100 °C) | Crystal form after heating ([2]; heating temp. 110 °C)
1 | CN(C)CCc1c[nH]c2ccc(C[C@H]3COC(=O)N3)cc12 [Form N] | Form A | Form A | Form K | Form A | Form D | Form A | N + A | Form N | not transform to other crystal form |  |  | 
2 | CN(C)CCc1c[nH]c2ccc(C[C@H]3COC(=O)N3)cc12 [Amorphous form] |  |  |  |  |  |  | Amorph | Amorphous Form | not transform to other crystal form | does not convert to Form A | Amorph | Amorph
